Experimental data from patent US7317007B2, “Benzothiazole derivatives with activity as adenosine receptor ligands” (Hoffmann-La Roche Inc., priority 2000, dated 2008).

molecular target: T1, human adenosine A2A receptor (Homo sapiens, UniProt P29274); assay: [3H]-SCH-58261 binding assay at the human adenosine A2A receptor; conditions: read-out: pKi value (converted)
T1 construct: expressed in transfected cells; host or cells: CHO cells, Semliki Forest virus expression system; washed membrane pellet used
Description: Human Adenosine A2A Receptor
The human adenosine A2A receptor was recombinantly expressed in chinese hamster ovary (CHO) cells using the semliki forest virus expression system. Cells were harvested, washed twice by centrifugation, homogenised and again washed by centrifugation. The final washed membrane pellet was suspended in a Tris (50 mM) buffer containing 120 mM NaCl, 5 mM KCl, 2 mM CaCl2 and 10 mM MgCl2 (pH 7.4) (buffer A). The [^3H]-SCH-58261 (Dionisotti et al., 1997, Br J Pharmacol 121, 353; 1 nM) binding assay was carried out in 96-well plates in the presence of 2.5 μg of membrane protein, 0.5 mg of Ysi-poly-1-lysine SPA beads and 0.1 U adenosine deaminase in a final volume of 200 μl of buffer A. Non-specific binding was defined using xanthine amine congener (XAC; 2 μM). Compounds were tested at 10 concentrations from 10 μM-0.3 nM. All assays were conducted in duplicate and repeated at least two times. Assay plates were incubated for 1 hour at room temperature before centrifugation and then bound ligand determined using a Packard Topcount scintillation counter. IC50 values were calculated using a non-linear curve fitting program and Ki values calculated using the Cheng-Prussoff equation.

T1 sequence (P29274 whole entry): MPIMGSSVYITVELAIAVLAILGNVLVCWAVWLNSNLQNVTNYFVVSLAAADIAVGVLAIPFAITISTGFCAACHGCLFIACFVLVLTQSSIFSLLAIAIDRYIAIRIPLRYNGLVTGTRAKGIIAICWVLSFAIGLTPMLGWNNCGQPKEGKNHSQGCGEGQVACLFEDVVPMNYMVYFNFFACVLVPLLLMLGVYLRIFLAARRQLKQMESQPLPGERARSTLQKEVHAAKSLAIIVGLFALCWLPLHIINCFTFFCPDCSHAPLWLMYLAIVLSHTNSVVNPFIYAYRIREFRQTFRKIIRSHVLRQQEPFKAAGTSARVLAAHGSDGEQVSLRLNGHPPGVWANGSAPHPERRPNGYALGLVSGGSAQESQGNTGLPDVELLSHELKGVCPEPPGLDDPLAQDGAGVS

| Compound | Ki [nM] |
| --- | --- |
| COc1ccc(-c2csc(N3CCN(C)CC3)n2)c2sc(NC(=O)c3ccc(F)cc3)nc12 [Example 221, 4-Fluoro-N-{4-methoxy-7-[2-(4-methyl-piperazin-1-yl)-thiazol-4-yl]-benzothiazol-2-yl}-benzamide] | 2 |
| COCCN(C)Cc1ccc(C(=O)Nc2nc3c(OC)ccc(-c4cccs4)c3s2)cc1 [Example 240, 4-{[(2-Methoxy-ethyl)-methyl-amino]-methyl}-N-(4-methoxy-7-thiophen-2-yl-benzothiazol-2-yl)-benzamide] | 3.16 |

tested on: not given; assay: not given; conditions: not given

| Compound | melting point |
| --- | --- |
| COc1ccc(-c2csc(N3CCN(C)CC3)n2)c2sc(NC(=O)c3ccc(F)cc3)nc12 [Example 221, 4-Fluoro-N-{4-methoxy-7-[2-(4-methyl-piperazin-1-yl)-thiazol-4-yl]-benzothiazol-2-yl}-benzamide] | 138 °C (dec.) |
| COc1ccc(-c2csc(NC(c3ccccc3)(c3ccccc3)c3ccccc3)n2)c2sc(NC(=O)c3ccc(CCl)cc3)nc12 [Example 229, 4-Chloromethyl-N-{4-methoxy-7-[2-(trityl-amino)-thiazol-4-yl]-benzothiazol-2-yl}-benzamide] | 163 °C (dec.) |
| COc1ccc(-c2cccs2)c2sc(NC(=O)c3ccc(CCl)cc3)nc12 [Example 231, 4-Chloromethyl-N-(4-methoxy-7-thiophen-2-yl-benzothiazol-2-yl)-benzamide] | 183 to 209 °C (dec.) |
| COc1ccc(-c2csc(-c3ccccn3)n2)c2sc(NC(=O)c3ccc(CCl)cc3)nc12 [Example 232, 4-Chloromethyl-N-[4-methoxy-7-(2-pyridin-2-yl-thiazol-4-yl)-benzothiazol-2-yl]-benzamide] | 195 to 201 °C |
| COc1ccc(-c2csc(C)n2)c2sc(NC(=O)c3ccc(CCl)cc3)nc12 [Example 233, 4-Chloromethyl-N-[4-methoxy-7-(2-methyl-thiazol-4-yl)-benzothiazol-2-yl]-benzamide] | 140 to 145 °C |
| COc1ccc(-c2ccc(C)s2)c2sc(NC(=O)c3ccc(CCl)cc3)nc12 [Example 234, 4-Chloromethyl-N-[4-methoxy-7-(5-methyl-thiophen-2-yl)-benzothiazol-2-yl]-benzamide] | 130 to 146 °C |
| COCCN(C)Cc1ccc(C(=O)Nc2nc3c(OC)ccc(-c4csc(NC(c5ccccc5)(c5ccccc5)c5ccccc5)n4)c3s2)cc1 [Example 236, 4-{[(2-Methoxy-ethyl)-methyl-amino]-methyl}-N-{4-methoxy-7-[2-(trityl-amino)-thiazol-4-yl]-benzothiazol-2-yl}-benzamide] | 119 to 128 °C |
| COCCN(C)Cc1ccc(C(=O)Nc2nc3c(OC)ccc(-c4csc(N(C)C)n4)c3s2)cc1 [Example 239, N-[7-(2-Dimethylamino-thiazol-4-yl)-4-methoxy-benzothiazol-2-yl]-4-{[(2-methoxy-ethyl)-methyl-amino]-methyl}-benzamide] | 85 to 95 °C |
| COCCN(C)Cc1ccc(C(=O)Nc2nc3c(OC)ccc(-c4cccs4)c3s2)cc1 [Example 240, 4-{[(2-Methoxy-ethyl)-methyl-amino]-methyl}-N-(4-methoxy-7-thiophen-2-yl-benzothiazol-2-yl)-benzamide] | 58 to 78 °C |
| COCCN(C)Cc1ccc(C(=O)Nc2nc3c(OC)ccc(-c4csc(C)n4)c3s2)cc1 [Example 242, 4-{[(2-Methoxy-ethyl)-methyl-amino]-methyl}-N-[4-methoxy-7-(2-methyl-thiazol-4-yl)-benzothiazol-2-yl]-benzamide] | 140 to 145 °C |
| COCCN(C)Cc1ccc(C(=O)Nc2nc3c(OC)ccc(-c4ccc(C)s4)c3s2)cc1 [Example 243, 4-{[(2-Methoxy-ethyl)-methyl-amino]-methyl}-N-[4-methoxy-7-(5-methyl-thiophen-2-yl)-benzothiazol-2-yl]-benzamide] | 83 to 90 °C |
| COc1ccc(-c2csc(N3CCCC3)n2)c2sc(NC(=O)c3ccnc(C)c3)nc12 [Example 255, N-[4-Methoxy-7-(2-pyrrolidin-1-yl-thiazol-4-yl)-benzothiazol-2-yl]-2-methyl-isonicotinamide] | 195 to 215 °C |
| COc1ccc(-c2csc(N3CCN(C)CC3)n2)c2sc(NC(=O)N3CCOCC3)nc12 [Example 261, Morpholine-4-carboxylic acid {4-methoxy-7-[2-(4-methyl-piperazin-1-yl)-thiazol-4-yl]-benzothiazol-2-yl}-amide] | 150 to 170 °C |
| COc1ccc(-c2csc(N3CCCCC3)n2)c2sc(NC(=O)N3CCOCC3)nc12 [Example 262, Morpholine-4-carboxylic acid [4-methoxy-7-(2-piperidin-1-yl-thiazol-4-yl)-benzothiazol-2-yl]-amide] | 227 to 234 °C |
| COc1ccc(-c2cccs2)c2sc(NC(=O)N3CCOCC3)nc12 [Example 263, Morpholine-4-carboxylic acid (4-methoxy-7-thiophen-2-yl-benzothiazol-2-yl)-amide] | 175 to 182 °C (dec.) |
| COc1ccc(-c2ccc(C)s2)c2sc(NC(=O)N3CCOCC3)nc12 [Example 264, Morpholine-4-carboxylic acid [4-methoxy-7-(5-methyl-thiophen-2-yl)-benzothiazol-2-yl]-amide] | 173 to 180 °C (dec.) |
| COc1ccc(-c2ccc(C)s2)c2sc(NC(=O)N3CCC(O)CC3)nc12 [Example 266, 4-Hydroxy-piperidine-1-carboxylic acid [4-methoxy-7-(5-methyl-thiophen-2-yl)-benzothiazol-2-yl]-amide] | 197 to 204 °C (dec.) |
| COc1ccc(-c2csc(C)n2)c2sc(NC(=O)N3CCN(C)CC3)nc12 [Example 267, 4-Methyl-piperazine-1-carboxylic acid [4-methoxy-7-(2-methyl-thiazol-4-yl)-benzothiazol-2-yl]-amide] | 179 to 181 °C |
